Measured values as given in patent US11197888B2, “LHRH-platinum conjugates for treating reproductive cancers” (priority 2015, dated 2021).

Tested on: 4T1 tumors
Experiment: In-vivo analysis of impact on 4T1 tumor growth in Balb/c mice
Set-up: species or system female Balb/c mice
Details: 4T1 tumors in mammary fat pad, carboplatin 5 mg/kg/wk or molar-equivalent Pt-LHRH, IP, 2 weeks, vs control
Experimental: In this experiment at least one eleven week old female Balb/c mice were utilized. The animals were allowed to acclimate for 1 week before experimentation and were maintained on a 12 hours light and dark cycle, and fed standard rodent chow (Prolab ISOPRO RMH 3000 Irradiated Lab Diet; Purina Mills International). Animal protocols were approved by the committee on animal research care and use at Eastern Kentucky University. 4T1 tumors were grown in the right abdominal mammary fat pad of the mice for 7 days. After tumor initiation (˜100 mm3) the mice were administered Pt-LHRH (carboplatin molar-equivalent dosage) through IP injection and compared to those treated with carboplatin (5 mg/kg/wk), no treatment, and LHRH plus carboplatin (unbound) controls for 2 weeks. Tumor growth was monitored daily and tumor volumes (mm3) were calculated using the formula: (width) 2×length/2, where width is the smaller of the two measurements. At two weeks the mice were sacrificed and tumor volume and weight were measured.

N.N.O=C([O-])C1(C(=O)[O-])CCC1.[Pt+2] [carboplatin]
tumor growth: no statistically significant reduction in tumor growth
